Assays:
[1] = system: Duplex (DNA, duplex) CAATCGGATCGAATTCGATCCGATTG; assay: CD melting; settings: 2 mM K+ (KCl); 10 mM Tris-HCl pH 7.4, 50 µM drug, 5 µM DNA
[2] = system: VEGF (DNA, G4) CCCGGGGCGGGCCGGGGGCGGGGTCCCGGCGGGGCGGAG; assay: CD melting; settings: 2 mM K+ (KCl); 10 mM Tris-HCl pH 7.4, 50 µM drug, 5 µM DNA
[3] = system: c-myc (DNA, G4) TGAGGGTGGGTAGGGTGGGTAA; assay: CD melting; settings: 2 mM K+ (KCl); 10 mM Tris-HCl pH 7.4, 50 µM drug, 5 µM DNA
[4] = system: c-kit (DNA, G4) CGGGCGGGCGCGAGGGAGGGG; assay: CD melting; settings: 2 mM K+ (KCl); 10 mM Tris-HCl pH 7.4, 50 µM drug, 5 µM DNA
[5] = system: KRAS (DNA, G4) GGGAGGGAGGGAAGGAGGGAGGGAGGGA; assay: CD melting; settings: 2 mM K+ (KCl); 10 mM Tris-HCl pH 7.4, 50 µM drug, 5 µM DNA
[6] = system: labeled c-myc (DNA, G4) TGAGGGTGGGTAGGGTGGGTAA; assay: FRET melting; settings: 2 mM K+ (KCl); 2 µM HCQ, ~25 nM DNA
[7] = system: c-myc (DNA, G4) TGAGGGTGGGTAGGGTGGGTAA; assay: 1H NMR imino titration; settings: 2 mM K+ (KCl), 100 µM DNA, H2O/D2O 90/10, 25 °C
[8] = system: bcl2 (DNA, G4) AGGGGCGGGCGCGGGAGGAAGGGGGCGGA; assay: CD melting; settings: 2 mM K+ (KCl); 10 mM Tris-HCl pH 7.4, 50 µM drug, 5 µM DNA

| binding [1] | ΔTm [2] [°C] | ΔTm [3] | ΔTm [4] [°C] | ΔTm [5] [°C] | Tm increase [6] | binding ([7]; 5' end stacking) | ΔTm [8] [°C] | binding [7] | SMILES |
| --- | --- | --- | --- | --- | --- | --- | --- | --- | --- |
| no | – | – | – | – | – | – | – | – | CCN(CC)CCCC(C)Nc1ccnc2cc(Cl)ccc12 (stereo not shown) |
| no | 9 | ~ 17 °C | 11 | 12 | ~ 12 °C | yes | 7 | – | CCN(CCO)CCCC(C)Nc1ccnc2cc(Cl)ccc12 (stereo not shown) |
| – | – | – | – | – | – | – | – | yes | Nc1ccnc2cc(Cl)ccc12 |

Source: PMC12554177 (2025)
